The numbers were not newly measured in patent US20040151761A1, “Methods and compositions utilizing astaxanthin” (priority 2003, published 2004), which cites them from elsewhere.

One data set relates to human neuroblastoma cell. Particulars: cited from earlier work.
The next data set relates to mouse splenocytes. Particulars: cultured cell assay (Jyonouchi et al.); cited from earlier work.
The test system of another data set is IgG. Conditions: dogs, 20 mg; cited from earlier work.
The conditions of data set [1]: cited from earlier work.
Data set [2] has as its system tumor necrosis factor (TNF). Conditions: hamsters; cited from earlier work.
Data set [3] deals with chemical-induced carcinogenesis. Particulars: mice; cited from earlier work.
In a further data set the test system is lymphocyte. Particulars: rats; cited from earlier work.

As to `CC1=C(/C=C/C(C)=C/C=C/C(C)=C/C=C/C=C(C)/C=C/C=C(C)/C=C/C2=C(C)CCCC2(C)C)C(C)(C)CCC1` [beta-carotene], the “human neuroblastoma cell proliferation” value in the data set on human neuroblastoma cell is “inhibit human neuroblastoma cell proliferation”. Also, the “in vitro antibody response of mouse splenocytes to T-dependent antigens” value in the data set on mouse splenocytes is “increase in vitro antibody response”. In addition, the “plasma IgG concentration versus un-supplemented animals” value with IgG is given as “higher concentrations of plasma IgG than un-supplemented animals”. The “conversion of beta-carotene to vitamin A” value in data set [1] (cats (Schweigert et al. 2002)) is on record as “not accompanied by conversion of beta-carotene to vitamin A”. Also, the absorption of beta-carotene entry in data set [1] (domestic cats (Chew et al. 2000)) is reported as “readily absorb beta-carotene”.

With `CC1=C[C@H](O)CC(C)(C)[C@H]1/C=C/C(C)=C/C=C/C(C)=C/C=C/C=C(C)/C=C/C=C(C)/C=C/C1=C(C)C[C@@H](O)CC1(C)C` [lutein], the “plasma IgG concentration versus un-supplemented animals” value in the data set with IgG is recorded as “higher concentrations of plasma IgG than un-supplemented animals”.

Take `CC1=C(/C=C/C(C)=C/C=C/C(C)=C/C=C/C=C(C)/C=C/C=C(C)/C=C/C2=C(C)C(=O)CCC2(C)C)C(C)(C)CCC1=O` [canthaxanthin]: in data set [2], the “production of tumor necrosis factor (TNF) by macrophages” value was “enhances the production of tumor necrosis factor (TNF)”. Besides, the chemical-induced carcinogenesis result in data set [3] is given as “prevent chemical-induced carcinogenesis”. Besides, the lymphocyte proliferation entry in the data set with lymphocyte is recorded as “increases lymphocyte proliferation”.
